Where “and” joins values, the source holds several entries; their conditions need not be identical. Equal entries are not always repeated. Toxic doses and inconclusive results are not listed. No stated cut-off is given here; in the data, active means T/C of 150% or more; inactive means T/C below 125%.
Tested on: L1210 leukemia ip in BDF1 mice, survival T/C
Test: NCI In Vivo Anticancer Drug Screen. Data for tumor model L1210 Leukemia (intraperitoneal) in B6D2F1 (BDF1) mice
Settings: endpoint: mean survival time, higher = longer survival
How it was run: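 Each compound was tested against a transplantable tumor grown in mice. The endpoint was survival, with treated animals benchmarked against vehicle controls as a simple ratio.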

[1] = dose: 25.0 mg/kg/injection, schedule: Q01DX009 (ip), vehicle: Klucel (hydroxypropylcellulose) (HPC)
[2] = dose: 50.0 mg/kg/injection, schedule: Q01DX009 (ip), vehicle: Klucel (hydroxypropylcellulose) (HPC)
[3] = dose: 50.0 mg/kg/injection, schedule: Q01DX009 (ip), vehicle: saline with Tween-80
[4] = dose: 100.0 mg/kg/injection, schedule: Q01DX009 (ip), vehicle: Klucel (hydroxypropylcellulose) (HPC)
[5] = dose: 100.0 mg/kg/injection, schedule: Q04DX003 (ip), vehicle: Klucel (hydroxypropylcellulose) (HPC)
[6] = dose: 200.0 mg/kg/injection, schedule: Q04DX003 (ip), vehicle: Klucel (hydroxypropylcellulose) (HPC)
[7] = dose: 400.0 mg/kg/injection, schedule: Q04DX003 (ip), vehicle: Klucel (hydroxypropylcellulose) (HPC)
[8] = dose: 100.0 mg/kg/injection, schedule: Q04DX003 (ip), vehicle: saline with Tween-80
[9] = dose: 200.0 mg/kg/injection, schedule: Q04DX003 (ip), vehicle: saline with Tween-80
[10] = dose: 400.0 mg/kg/injection, schedule: Q04DX003 (ip), vehicle: saline with Tween-80
[11] = dose: 200.0 mg/kg/injection, schedule: Q01DX009 (ip), vehicle: Klucel (hydroxypropylcellulose) (HPC)
[12] = dose: 100.0 mg/kg/injection, schedule: Q01DX001 (ip), vehicle: saline
[13] = dose: 200.0 mg/kg/injection, schedule: Q01DX001 (ip), vehicle: saline
[14] = dose: 400.0 mg/kg/injection, schedule: Q01DX001 (ip), vehicle: saline
[15] = dose: 100.0 mg/kg/injection, schedule: Q01DX001 (ip), vehicle: Klucel (hydroxypropylcellulose) (HPC)
[16] = dose: 200.0 mg/kg/injection, schedule: Q01DX001 (ip), vehicle: Klucel (hydroxypropylcellulose) (HPC)

Measured: T/C

CC1(C)N=C(N)N=C(N)N1c1cccc(CC(=O)Nc2ccc(S(=O)(=O)F)cc2)c1
inactive: dose: 0.8 mg/kg/injection, schedule: Q01DX009 (ip), vehicle: saline 101 % of control | dose: 4.0 mg/kg/injection, schedule: Q01DX009 (ip), vehicle: saline 100 % of control | dose: 20.0 mg/kg/injection, schedule: Q01DX009 (ip), vehicle: saline 110 % of control | [1] 108 % of control | dose: 25.0 mg/kg/injection, schedule: Q01DX009 (ip), vehicle: saline with Tween-80 103 % of control | [2] 113 % of control | [3] 100 % of control | dose: 88.0 mg/kg/injection, schedule: Q01DX009 (ip), vehicle: saline with Tween-80 102 % of control | [4] 109 % of control | dose: 100.0 mg/kg/injection, schedule: Q01DX009 (ip), vehicle: saline 117 % of control | dose: 132.0 mg/kg/injection, schedule: Q01DX009 (ip), vehicle: saline with Tween-80 121 % of control | dose: 150.0 mg/kg/injection, schedule: Q01DX009 (ip), vehicle: Klucel (hydroxypropylcellulose) (HPC) 105 % of control | dose: 300.0 mg/kg/injection, schedule: Q01DX009 (ip), vehicle: saline with Tween-80 89 % of control

c1ccc(C(C2CCCCC2)(C2CCCCC2)C(c2ccccc2)(C2CCCCC2)C2CCCCC2)cc1
inactive: dose: 25.0 mg/kg/injection, schedule: Q04DX003 (ip), vehicle: Klucel (hydroxypropylcellulose) (HPC) 105 % of control | dose: 50.0 mg/kg/injection, schedule: Q04DX003 (ip), vehicle: Klucel (hydroxypropylcellulose) (HPC) 111 % of control | [5] 92 % of control and 93 % of control | [6] 93 % of control | [7] 87 % of control

Cc1[o+]c(C)c2c(c1C)-c1ccccc1C2=O
inactive: [3] 93 % of control | dose: 100.0 mg/kg/injection, schedule: Q01DX009 (ip), vehicle: saline with Tween-80 96 % of control | [8] 98 % of control | dose: 200.0 mg/kg/injection, schedule: Q01DX009 (ip), vehicle: saline with Tween-80 105 % of control | [9] 98 % of control | [10] 98 % of control

S=P(NCc1ccccc1)(NCc1ccccc1)NCc1ccccc1
inactive: dose: 100.0 mg/kg/injection, schedule: Q04DX002 (ip), vehicle: gum acacia 97 % of control | dose: 200.0 mg/kg/injection, schedule: Q04DX002 (ip), vehicle: gum acacia 97 % of control | dose: 400.0 mg/kg/injection, schedule: Q04DX002 (ip), vehicle: gum acacia 94 % of control

Nc1sc(=S)nc2[nH]ncc12
inactive: [2] 90 % of control | [4] 96 % of control | [5] 98 % of control | [11] 93 % of control | [6] 95 % of control | [7] 95 % of control

OCCN(CCO)c1cccc(C(F)(F)F)c1
inactive: dose: 50.0 mg/kg/injection, schedule: Q01DX001 (ip), vehicle: saline 96 % of control | [12] 100 % of control | [13] 106 % of control | [14] 96 % of control

O=C(NC(=O)C(Cl)Cl)OC1c2ccccc2-c2ccccc21
inactive: dose: 50.0 mg/kg/injection, schedule: Q01DX001 (ip), vehicle: Klucel (hydroxypropylcellulose) (HPC) 95 % of control | [15] 100 % of control | [4] 90 % of control | [5] 96 % of control | [16] 94 % of control | [11] 93 % of control | [6] 96 % of control | dose: 400.0 mg/kg/injection, schedule: Q01DX001 (ip), vehicle: Klucel (hydroxypropylcellulose) (HPC) 92 % of control | [7] 95 % of control

Cc1nc(N)c2nc(-c3ccc(N(CCO)CCO)cc3)c(N)nc2n1
inactive: [12] 98 % of control | [13] 95 % of control | [14] 89 % of control

CC1=CC=CC(C)(Cc2ccc(-c3ccc(CC4(C)C=CC=C(C)C4=O)cc3)cc2)C1=O (stereo not drawn)
inactive: dose: 100.0 mg/kg/injection, schedule: Q01DX001 (ip), vehicle: saline sonified 92 % of control | dose: 200.0 mg/kg/injection, schedule: Q01DX001 (ip), vehicle: saline sonified 90 % of control | dose: 400.0 mg/kg/injection, schedule: Q01DX001 (ip), vehicle: saline sonified 95 % of control

Clc1nccnc1C(Cl)(Cl)Cl
inactive: dose: 50.0 mg/kg/injection, schedule: Q01DX009 (ip), vehicle: other 92 % of control | dose: 100.0 mg/kg/injection, schedule: Q01DX009 (ip), vehicle: other 95 % of control

CCCCSN1CCCCC1
inactive: dose: 100.0 mg/kg/injection, schedule: Q04DX002 (ip), vehicle: saline with Tween-80 93 % of control | dose: 200.0 mg/kg/injection, schedule: Q04DX002 (ip), vehicle: saline with Tween-80 93 % of control

CCOC(=O)CCC(NC(=O)c1c(Cl)cc(N(C)S(=O)(=O)c2ccc(C)cc2)cc1Cl)C(=O)OCC (stereo not drawn)
inactive: [5] 105 % of control | [6] 97 % of control | [7] 97 % of control

NC(=O)C1(Nc2ccc(-c3ccc(Br)cc3)cc2)CCCC1
inactive: dose: 50.0 mg/kg/injection, schedule: Q01DX001 (ip), vehicle: carboxymethylcellulose (CMC) 95 % of control | dose: 100.0 mg/kg/injection, schedule: Q01DX001 (ip), vehicle: carboxymethylcellulose (CMC) 86 % of control | dose: 400.0 mg/kg/injection, schedule: Q01DX001 (ip), vehicle: carboxymethylcellulose (CMC) 86 % of control

Clc1nc(Nc2ccccc2)c2ccccc2n1
inactive: [2] 111 % of control | [4] 95 % of control | [11] 107 % of control

Cc1cc(C)c(-c2c(C)cc(C)c(N)c2C)c(C)c1N
inactive: dose: 12.5 mg/kg/injection, schedule: Q01DX009 (ip), vehicle: Klucel (hydroxypropylcellulose) (HPC) 90 % of control | [1] 93 % of control | [2] 103 % of control | [5] 109 % of control | [6] 95 % of control | [7] 97 % of control

CCC12CCC(Br)C(C1)OC2=O (stereo not drawn)
inactive: [8] 98 % of control | [9] 91 % of control | [10] 93 % of control

c1ccc(C(NC2CC3CCC2C3)c2ccccc2)cc1 (stereo not drawn)
inactive: dose: 50.0 mg/kg/injection, schedule: Q01DX009 (ip), vehicle: saline sonified 101 % of control | [15] 109 % of control | dose: 100.0 mg/kg/injection, schedule: Q01DX009 (ip), vehicle: saline sonified 95 % of control | [16] 95 % of control | dose: 200.0 mg/kg/injection, schedule: Q01DX009 (ip), vehicle: saline sonified 100 % of control

O=C1NC2(C=CCCC2)C(O)(c2ccccc2)C12CCCCC2 (stereo not drawn)
inactive: dose: 75.0 mg/kg/injection, schedule: Q01DX001 (ip), vehicle: saline 95 % of control | dose: 150.0 mg/kg/injection, schedule: Q01DX001 (ip), vehicle: saline 86 % of control | dose: 300.0 mg/kg/injection, schedule: Q01DX001 (ip), vehicle: saline 89 % of control

CCN1C(=O)CSC1=S
inactive: [12] 101 % of control | dose: 100.0 mg/kg/injection, schedule: Q04DX003 (ip), vehicle: other 92 % of control and 96 % of control | [13] 101 % of control | dose: 200.0 mg/kg/injection, schedule: Q04DX003 (ip), vehicle: other 110 % of control and 89 % of control | [14] 102 % of control | dose: 400.0 mg/kg/injection, schedule: Q04DX003 (ip), vehicle: other 96 % of control
